Measured values reported in the NIST ThermoML archive (doi:10.1021/je800888n).

Columns and labels:
[1] = Liquid, Closed cell (Static) method
[2] = excess molar enthalpy (molar enthalpy of mixing); xn = mol fraction of the nth substance listed; conditions: 323.15 K, 101 kPa, Liquid, Flow calorimetry

CCCC(=O)O [butanoic acid]
[1]
Conditions	vapor or sublimation pressure [kPa]
273.15 K	0.0137
283.15 K	0.0324
293.15 K	0.0725
293.29 K	0.072
298.15 K	0.1063
298.25 K	0.1052
303.15 K	0.1541
303.28 K	0.1545
313.15 K	0.3128
313.22 K	0.3155
323.15 K	0.6084
323.2 K	0.6183
333.15 K	1.138
333.18 K	1.153
343.15 K	2.055
343.18 K	2.073
353.1 K	3.582
353.15 K	3.593
363.08 K	5.973
363.15 K	6.095

CCCC(=O)O [butanoic acid] + Cc1ccccc1
[2]
Conditions	excess molar enthalpy [kcal/mol]
x1 = 0.0289	0.00659
x1 = 0.0576	0.00663
x1 = 0.1144	0.00368
x1 = 0.1702	-0.000361
x1 = 0.2251	-0.00433
x1 = 0.2792	-0.00731
x1 = 0.3325	-0.0104
x1 = 0.3849	-0.0129
x1 = 0.4366	-0.0149
x1 = 0.4874	-0.0163
x1 = 0.5375	-0.0174
x1 = 0.5869	-0.0176
x1 = 0.6355	-0.0169
x1 = 0.6834	-0.0161
x1 = 0.7306	-0.0147
x1 = 0.7771	-0.013
x1 = 0.823	-0.0107
x1 = 0.8682	-0.00798
x1 = 0.9127	-0.00545
x1 = 0.9567	-0.00251
x1 = 0.9784	-0.00114

Cc1ccccc1 [toluene]
[1]
Conditions	vapor or sublimation pressure [kPa]
253.83 K	0.2392
263.64 K	0.4837
273.15 K	0.9082
273.47 K	0.9254
283.15 K	1.666
283.32 K	1.68
293.15 K	2.911
293.24 K	2.925
293.26 K	2.925
298.15 K	3.785
298.25 K	3.803
303.15 K	4.872
303.23 K	4.894
313.15 K	7.848
313.19 K	7.872
313.22 K	7.874
323.15 K	12.22
323.22 K	12.24
333.15 K	18.45
333.2 K	18.57
343.15 K	27.1
343.16 K	27.2
353.13 K	38.84
353.15 K	38.84
363.08 K	54.13
363.15 K	54.42
